These results are taken from patent publication US9597407B2, “Targeted antimicrobial moieties” (C3 Jian, Inc., priority 2009, dated 2017).

“Also recorded” adds a separate entry of the source.

This test deals with bacteria. As to the kind of experiment: Binding of targeting peptides to microorganisms (Table 3). As to conditions: microorganism bound by the targeting peptide; binding in aqueous buffers chosen by peptide solubility, preferably 1x PBS.
Regarding “PF-217 (DWEFTHKTIPQKK; Peptide with targeting and/or antimicrobial activity)”, the “Target(s)” value is recorded as “S. mutans”. The entry for “PF-218 (SETPEKPVGTFFYSIYYKIIL; Peptide with targeting and/or antimicrobial activity)” is “S. epidermidis; also recorded: M. luteus; also recorded: P. aeruginosa; also recorded: A. baumannii”. For the substance “PF-219 (FLALAVIAGLFKVILIYAAPYLK; Peptide with targeting and/or antimicrobial activity)”, the “Target(s)” value was “S. epidermidis; also recorded: M. luteus; also recorded: P. aeruginosa; also recorded: A. baumannii”. The result for “PF-221 (VFDNIDINF; Peptide with targeting and/or antimicrobial activity)” reads “S. epidermidis; also recorded: M. luteus; also recorded: P. aeruginosa”; that for “PF-223 (VKFCIECQTKLERKRR; Peptide with targeting and/or antimicrobial activity)”, “S. epidermidis; also recorded: M. luteus; also recorded: A. baumannii”. For “PF-225 (MNCASPEFKKLMELYK; Peptide with targeting and/or antimicrobial activity)”, the “Target(s)” value is reported as “S. epidermidis”. The result for “PF-228 (NQLGSQAFAQL; Peptide with targeting and/or antimicrobial activity)” reads “S. mutans”; that for “PF-229 (DPILIQIGFTRFALRKAEAEKIEIQVEEGVPA; Peptide with targeting and/or antimicrobial activity)”, “S. epidermidis; also recorded: M. luteus; also recorded: P. aeruginosa; also recorded: A. baumannii”; that for “PF-230 (EDKPTNTIQEIKPVKWQ; Peptide with targeting and/or antimicrobial activity)”, “S. mutans”. In the case of “PF-231 (AVRDFKKSVREEDEAASLNSPRTIDAQVKTSESTSVKS; Peptide with targeting and/or antimicrobial activity)”, the “Target(s)” value is on record as “S. mutans”. The entry for “PF-232 (FDQLYALEREGKLDELLA; Peptide with targeting and/or antimicrobial activity)” is “S. epidermidis; also recorded: M. luteus”; for “PF-236 (KEIRTATVAELNAKRRLTSAEQALAEVS; Peptide with targeting and/or antimicrobial activity)” it is “S. mutans; also recorded: S. epidermidis; also recorded: E. coli; also recorded: C. albicans; also recorded: S. pneumoniae; also recorded: E. faecalis”. The result for “PF-237 (YVKPKVGVHE; Peptide with targeting and/or antimicrobial activity)” reads “S. epidermidis”.

With “PF-238 (RNAVVVTEATFPKYEEEITNYLNRRFGEDWSLKLEKCSVA; Peptide with targeting and/or antimicrobial activity)”, the “Target(s)” value was “S. mutans and S. epidermidis and E. coli and P. aeruginosa and C. albicans and MRSA and S. pneumoniae and E. faecalis”. The result for “PF-239 (PKHNVVTGVSVDLDYKP; Peptide with targeting and/or antimicrobial activity)” reads “S. mutans; also recorded: E. coli”; that for “PF-240 (RITEVPPDEHSDR; Peptide with targeting and/or antimicrobial activity)”, “S. mutans; also recorded: E. coli”; that for “PF-242 (KLFEDPLIKSKAVENFQTTWHEQCLAKELAKNM; Peptide with targeting and/or antimicrobial activity)”, “S. mutans; also recorded: E. coli”.

With “PF-244 (HMRTISYLLAFAKFSLFIPPKQSLKRL; Peptide with targeting and/or antimicrobial activity)”, the “Target(s)” value is on record as “S. epidermidis; also recorded: M. luteus; also recorded: P. aeruginosa; also recorded: A. baumannii”. As for “PF-245 (MNDVKPVVQPKQTLKAFLVQLLSVRAGVYIKQNNQLPKTKG; Peptide with targeting and/or antimicrobial activity)”, the “Target(s)” value was “S. epidermidis; also recorded: M. luteus; also recorded: P. aeruginosa; also recorded: A. baumannii”. The result for “PF-246 (QPDEKAEFFDPSLDKVYRHPTFYHIPDGIEHM; Peptide with targeting and/or antimicrobial activity)” reads “S. mutans”. The result for “PF-247 (ETAASETH; Peptide with targeting and/or antimicrobial activity)” reads “S. epidermidis”; that for “PF-248 (ILSKLWFWMINSLGVVLLVSYWLLAKWGVA; Peptide with targeting and/or antimicrobial activity)”, “S. mutans; also recorded: S. epidermidis; also recorded: M. luteus; also recorded: E. coli; also recorded: P. aeruginosa; also recorded: A. baumannii”; that for “PF-253 (VRDDDS; Peptide with targeting and/or antimicrobial activity)”, “S. epidermidis; also recorded: M. luteus”.

As to “PF-254 (FIYGVGFVPHFWLWKWLFSPWIAWPLMLLGYYIWFLT; Peptide with targeting and/or antimicrobial activity)”, the “Target(s)” value is given as “S. epidermidis; also recorded: M. luteus; also recorded: P. aeruginosa; also recorded: A. baumannii”. For “PF-256 (EYFKQVYVKNEKIYSFWICKDLSPKEAAKRAEDILVKLK; Peptide with targeting and/or antimicrobial activity)”, the “Target(s)” value is on record as “S. epidermidis”. The result for “PF-259 (LPFSKIGRRVSYKKKDVLKYEQSKTVLNTAQLATV; Peptide with targeting and/or antimicrobial activity)” reads “S. epidermidis; also recorded: P. aeruginosa; also recorded: A. baumannii”; that for “PF-262 (DPHSEIDVTRYCQLHHFTCQTMQISEREFHYLIETQ; Peptide with targeting and/or antimicrobial activity)”, “S. mutans; also recorded: S. epidermidis; also recorded: M. luteus; also recorded: E. coli; also recorded: P. aeruginosa; also recorded: A. baumannii”; that for “PF-263 (NLKKCPC; Peptide with targeting and/or antimicrobial activity)”, “S. epidermidis; also recorded: M. luteus; also recorded: A. baumannii”. The result for “PF-265 (MKTLFFPLFLIIFVLIIQALDQSYQKKIGISKPQKHPEFMQ; Peptide with targeting and/or antimicrobial activity)” reads “S. epidermidis; also recorded: M. luteus; also recorded: A. baumannii”; that for “PF-266 (DQEKKNKTEESTEQ; Peptide with targeting and/or antimicrobial activity)”, “S. mutans”; that for “PF-267 (SDDKRTD; Peptide with targeting and/or antimicrobial activity)”, “M. luteus”. The result for “PF-268 (EVLLSDLRPDIFSET; Peptide with targeting and/or antimicrobial activity)” reads “S. mutans”; that for “PF-275 (LVSGVANTVKNTAHTVGNTAKHAGHVAADTTVKATKKQQVK; Peptide with targeting and/or antimicrobial activity)”, “S. mutans”; that for “PF-279 (SHIGFISISACLAVLLGIARLFVWTWVKFFA; Peptide with targeting and/or antimicrobial activity)”, “S. mutans; also recorded: S. epidermidis; also recorded: M. luteus; also recorded: E. coli; also recorded: P. aeruginosa; also recorded: A. baumannii”. “PF-281 (SYNTYYNKLIHGQRTPDGM; Peptide with targeting and/or antimicrobial activity)”: the “Target(s)” value was “S. mutans; also recorded: E. coli”. The entry for “PF-282 (QNNDTSAWCGSAHKNGNS; Peptide with targeting and/or antimicrobial activity)” is “S. mutans”; for “PF-284 (MRYITYSLIPRLLSKKVIHQQ; Peptide with targeting and/or antimicrobial activity)” it is “C. difficile”.

As for “PF-285 (VPAKLLRVIDEIPE; Peptide with targeting and/or antimicrobial activity)”, the “Target(s)” value is on record as “S. mutans”. For “PF-288 (IYQLLNIEYSEDD; Peptide with targeting and/or antimicrobial activity)”, the “Target(s)” value is listed as “S. mutans; also recorded: E. coli”. The entry for “PF-291 (DVDGAIESEL; Peptide with targeting and/or antimicrobial activity)” is “S. mutans; also recorded: E. coli”.

In the case of “PF-295 (NIQVYESECGNYIFKKSDESFLIDIFDKNGTH; Peptide with targeting and/or antimicrobial activity)”, the “Target(s)” value was “C. difficile”. The result for “PF-299 (LATKLKYEKEHKKM; Peptide with targeting and/or antimicrobial activity)” reads “B. subtilis”. The result for “PF-300 (VKDVLLELFNKIIGA; Peptide with targeting and/or antimicrobial activity)” reads “B. subtilis; also recorded: C. difficile”. The result for “PF-304 (LVKDTSDIKNDLNNIEIVTSKNSNDIAKLKSVK; Peptide with targeting and/or antimicrobial activity)” reads “S. mutans”; that for “PF-308 (QQYLILDRM; Peptide with targeting and/or antimicrobial activity)”, “C. difficile”. For the substance “PF-309 (GIPGMTAAPAEENEQEENADEE; Peptide with targeting and/or antimicrobial activity)”, the “Target(s)” value is “S. mutans; also recorded: E. coli”. Turning to “PF-311 (IDAVTKKKTTCMIRAPTKIPIAHTDN; Peptide with targeting and/or antimicrobial activity)”, the “Target(s)” value is “C. difficile”. The entry for “PF-314 (ECLKKAIKSKALNKAFKIDVPDEVYDNLLMELEEYEK; Peptide with targeting and/or antimicrobial activity)” is “S. mutans”; for “PF-317 (LILVSDI; Peptide with targeting and/or antimicrobial activity)” it is “S. mutans”.
